Data taken from patent US20180016593A1, “HERBICIDE-RESISTANT SUNFLOWER PLANTS, POLYNUCLEOTIDES ENCODING HERBICIDE-RESISTANT ACETOHYDROXYACID SYNTHASE LARGE SUBUNIT PROTEINS, AND METHODS OF USE” (priority 2005, published 2018).
Like-named read-outs stand apart in the source and are kept apart here.

Columns and labels:
Assay type in all cases: in vivo, Helianthus annuus
[1] = tested on: sunflower TH1 (Hybrid, A205V); details: 14 DAT
Procedure: (§1) A greenhouse study was conducted to quantify and contrast the imazapir sensivity of the mutants A122T and A205V in different genetic backgrounds at the whole plant level in sunflower. Seeds of the different sunflower lines that were used in this study were obtained under field conditions.
(§2) Seeds were sown in Petri dishes and, after germination, plantlets were transplanted to pots of 10 cm of diameter in a potting media consisting of equal parts of vermiculite, soil and sand. Plants were grown in a greenhouse under natural light conditions supplemented with 400 W sodium halide lamps to provide a 16 hrs daylength. Day/night temperatures were 25 and 20° C., respectively. At the V2 stage 10 plants of each genotype were randomly assigned to each treatment consisting of […] imazapir doses (0, 40, 80, 160, 240, 320, 400 and 480 g ai/ha), and a zero-time biomass determination. Experiment was arranged as a randomized block design with a full factorial (sunflower line×treatment) arrangement of treatments and 10 replications.
(§3) On the day of herbicide application ten plants of each genotype were cut at the cotyledonal node and dried at 60° C. for 48 hrs zero-time for dried weight determination.
(§4) Height was determined as the distance between the cotyledonal node and the apex of each plant. For root biomass determination, each plant was taken from the pot and the potting media was washed out from the roots. Above ground biomass data from each line were converted to biomass accumulation after application by subtracting the appropriate average zero-time biomass from each sample. Dry biomass data were converted to percentages of the untreated control plants within each line to allow direct comparisons between groups. […]

[2] = tested on: sunflower TH10 (Restorer Line, A205V); details: 14 DAT
Procedure: as §1, §2, §3, §4

[3] = tested on: sunflower lines carrying the A122T mutation; details: A122T mean minus A205V mean, 14 DAT
Procedure: as §1, §2, §3, §4

CC(C)C1(C)N=C(c2ncccc2C(=O)O)NC1=O (stereo not drawn) [imazapyr]
biomass accumulation (above ground dry weight) ([1]; 0.5x (40 g ai/ha)): 95.0 % of untreated plots
plant height ([1]; 0.5x (40 g ai/ha)): 99.5 % of untreated plots
root dry weight ([1]; 0.5x (40 g ai/ha)): 79.4 % of untreated plots
biomass accumulation (above ground dry weight) ([1]; 1x (80 g ai/ha)): 89.6 % of untreated plots
plant height ([1]; 1x (80 g ai/ha)): 99.5 % of untreated plots
root dry weight ([1]; 1x (80 g ai/ha)): 70.7 % of untreated plots
biomass accumulation (above ground dry weight) ([1]; 2x (160 g ai/ha)): 75.5 % of untreated plots
plant height ([1]; 2x (160 g ai/ha)): 78.6 % of untreated plots
root dry weight ([1]; 2x (160 g ai/ha)): 69.6 % of untreated plots
biomass accumulation (above ground dry weight) ([1]; 3x (240 g ai/ha)): 60.4 % of untreated plots
plant height ([1]; 3x (240 g ai/ha)): 48.4 % of untreated plots
root dry weight ([1]; 3x (240 g ai/ha)): 42.3 % of untreated plots
biomass accumulation (above ground dry weight) ([1]; 4x (320 g ai/ha)): 48.5 % of untreated plots
plant height ([1]; 4x (320 g ai/ha)): 28.9 % of untreated plots
root dry weight ([1]; 4x (320 g ai/ha)): 38.6 % of untreated plots
biomass accumulation (above ground dry weight) ([1]; 5x (400 g ai/ha)): 38.9 % of untreated plots
plant height ([1]; 5x (400 g ai/ha)): 25.3 % of untreated plots
root dry weight ([1]; 5x (400 g ai/ha)): 34.7 % of untreated plots
biomass accumulation (above ground dry weight) ([1]; 6x (480 g ai/ha)): 33.9 % of untreated plots
plant height ([1]; 6x (480 g ai/ha)): 27.1 % of untreated plots
root dry weight ([1]; 6x (480 g ai/ha)): 23.1 % of untreated plots
Phytotoxicity Index ([2]; 0.5x (40 g ai/ha)): 0
biomass accumulation (above ground dry weight) ([2]; 0.5x (40 g ai/ha)): 99.2 % of untreated plots
plant height ([2]; 0.5x (40 g ai/ha)): 99.2 % of untreated plots
root dry weight ([2]; 0.5x (40 g ai/ha)): 90.3 % of untreated plots
Phytotoxicity Index ([2]; 1x (80 g ai/ha)): 0
biomass accumulation (above ground dry weight) ([2]; 1x (80 g ai/ha)): 85.0 % of untreated plots
plant height ([2]; 1x (80 g ai/ha)): 98.1 % of untreated plots
root dry weight ([2]; 1x (80 g ai/ha)): 69.9 % of untreated plots
Phytotoxicity Index ([2]; 2x (160 g ai/ha)): 3.1
biomass accumulation (above ground dry weight) ([2]; 2x (160 g ai/ha)): 58.1 % of untreated plots
plant height ([2]; 2x (160 g ai/ha)): 63.6 % of untreated plots
root dry weight ([2]; 2x (160 g ai/ha)): 41.3 % of untreated plots
Phytotoxicity Index ([2]; 3x (240 g ai/ha)): 3.9
biomass accumulation (above ground dry weight) ([2]; 3x (240 g ai/ha)): 48.1 % of untreated plots
plant height ([2]; 3x (240 g ai/ha)): 51.9 % of untreated plots
root dry weight ([2]; 3x (240 g ai/ha)): 42.8 % of untreated plots
Phytotoxicity Index ([2]; 4x (320 g ai/ha)): 5.9
biomass accumulation (above ground dry weight) ([2]; 4x (320 g ai/ha)): 28.8 % of untreated plots
plant height ([2]; 4x (320 g ai/ha)): 27.5 % of untreated plots
root dry weight ([2]; 4x (320 g ai/ha)): 22.3 % of untreated plots
Phytotoxicity Index ([2]; 5x (400 g ai/ha)): 6.9
biomass accumulation (above ground dry weight) ([2]; 5x (400 g ai/ha)): 27.4 % of untreated plots
plant height ([2]; 5x (400 g ai/ha)): 26.0 % of untreated plots
root dry weight ([2]; 5x (400 g ai/ha)): 22.7 % of untreated plots
Phytotoxicity Index ([2]; 6x (480 g ai/ha)): 6.7
biomass accumulation (above ground dry weight) ([2]; 6x (480 g ai/ha)): 24.9 % of untreated plots
plant height ([2]; 6x (480 g ai/ha)): 29.3 % of untreated plots
root dry weight ([2]; 6x (480 g ai/ha)): 16.4 % of untreated plots
biomass accumulation, Dif A122T-A205V ([3]; 0.5x (40 g ai/ha)): 4.3 % of untreated plots
plant height, Dif A122T-A205V ([3]; 0.5x (40 g ai/ha)): 4.9 % of untreated plots
root dry weight, Dif with A122T-A205V ([3]; 0.5x (40 g ai/ha)): 12.7 % of untreated plots
biomass accumulation, Dif A122T-A205V ([3]; 1x (80 g ai/ha)): 14.5 % of untreated plots
plant height, Dif A122T-A205V ([3]; 1x (80 g ai/ha)): 9.4 % of untreated plots
root dry weight, Dif with A122T-A205V ([3]; 1x (80 g ai/ha)): 26.7 % of untreated plots
biomass accumulation, Dif A122T-A205V ([3]; 2x (160 g ai/ha)): 33.2 % of untreated plots
plant height, Dif A122T-A205V ([3]; 2x (160 g ai/ha)): 28.0 % of untreated plots
root dry weight, Dif with A122T-A205V ([3]; 2x (160 g ai/ha)): 43.6 % of untreated plots
biomass accumulation, Dif A122T-A205V ([3]; 3x (240 g ai/ha)): 45.3 % of untreated plots
plant height, Dif A122T-A205V ([3]; 3x (240 g ai/ha)): 45.3 % of untreated plots
root dry weight, Dif with A122T-A205V ([3]; 3x (240 g ai/ha)): 50.2 % of untreated plots
biomass accumulation, Dif A122T-A205V ([3]; 4x (320 g ai/ha)): 52.4 % of untreated plots
plant height, Dif A122T-A205V ([3]; 4x (320 g ai/ha)): 59.9 % of untreated plots
